Experimental data published in ChEMBL document CHEMBL6078612, “Novel strategies based on natural products and synthetic derivatives to overcome resistance in Mycobacterium tuberculosis” (Eur J Med Chem, 2024).
Values after ≈ are worked out from the molar mass of the structure shown.

What was measured:
[1] = tested on: Mycobacterium tuberculosis; test: Antitubercular activity against XDR Mycobacterium tuberculosis; format: functional
[2] = Inhibition of Mycobacterium tuberculosis isocitrate lyase
[3] = tested on: Mycobacterium tuberculosis; test: Antimycobacterial activity against Mycobacterium tuberculosis H37Rv assessed as reduction in bacterial cell growth by resazurin reduction method; format: functional

Molecule | MIC [1] [µg/mL] | IC50 [2] [µM] | MIC [3] [µg/mL]
CC(=O)NC[C@H]1CN(c2ccc(N3CCOCC3)c(F)c2)C(=O)O1 [LINEZOLID] | 0.125 (≈ 0.371 µM) | – | –
O=c1c(O)c(-c2ccc(O)c(O)c2)oc2cc(O)cc(O)c12 [QUERCETIN] | – | 3.57 | –
H-GWLDVAKKIGKAAFNVAKNFI-OH | < 0.97 | – | < 0.98
